Like-named read-outs stand apart in the source and are kept apart here.
Legend:
THP1-Dual cells = assay: Cell-based Lucia luciferase assay in THP1-Dual cells (dsDNA transfection); settings: Homo sapiens, 1 h pre-incubation, 100-bp dsDNA transfection for 24 h
h-cGAS = target: T1, h-cGAS (Homo sapiens, UniProt Q8N884); assay: cGAS biochemical assay, RapidFire 365 mass spectrometry (RF-MS); settings: full-length h-cGAS 100 nM, dsDNA 25 nM, ATP and GTP 100 μM, 7 h at RT
T1 construct: The final concentration of full-length h-cGAS, dsDNA, ATP, and GTP were 100 nM
T1 sequence (Q8N884 whole entry): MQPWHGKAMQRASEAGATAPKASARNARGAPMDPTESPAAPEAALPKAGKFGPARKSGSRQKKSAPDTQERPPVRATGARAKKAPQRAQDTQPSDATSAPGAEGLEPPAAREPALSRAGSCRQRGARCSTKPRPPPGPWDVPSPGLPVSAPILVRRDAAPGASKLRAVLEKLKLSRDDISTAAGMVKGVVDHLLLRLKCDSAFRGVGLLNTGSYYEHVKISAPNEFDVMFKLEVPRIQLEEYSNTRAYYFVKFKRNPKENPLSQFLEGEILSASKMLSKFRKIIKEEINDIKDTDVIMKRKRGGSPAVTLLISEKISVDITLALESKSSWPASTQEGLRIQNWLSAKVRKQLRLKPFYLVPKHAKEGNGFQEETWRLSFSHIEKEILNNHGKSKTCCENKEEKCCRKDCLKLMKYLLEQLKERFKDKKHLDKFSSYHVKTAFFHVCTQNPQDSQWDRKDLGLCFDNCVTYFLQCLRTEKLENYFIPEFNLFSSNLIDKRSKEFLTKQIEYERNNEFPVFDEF

[1] = tested on: primary human macrophage cells; assay: IFNB1 mRNA expression, qRT-PCR, primary human macrophages; format: cell-based; settings: read-out: Human Macrophage, qRT-PCR IC50
THP1 cells = assay: IFNB1 mRNA expression, qRT-PCR, THP1 cells; format: cell-based; settings: Homo sapiens, read-out: THP1, qRT-PCR IC50
human PBMCs = assay: IFNB1 mRNA expression, qRT-PCR, human PBMCs; format: cell-based; settings: PBMC, 4 hours post-transfection of dsDNA
[2] = IFNB1 mRNA, 4 hours post-transfection of dsDNA
[3] = THP-1, IFNB1 mRNA, 4 hours post-transfection of dsDNA
[4] = fresh PBMCs, read-out: Fresh human PBMCs, qRT-PCR IC50

IC50 (THP1-Dual cells) | IC50 (h-cGAS) | Compound | further results
5260 nM | – | O=C(CO)N1CCc2[nH]c3c(Cl)c(Cl)cc(-c4cn[nH]c4)c3c2C1 [TDI-007445, 1-(6,7-Dichloro-9-(1H-pyrazol-4-yl)-1,3,4,5-tetrahydro-2H-pyrido[4,3-b]indol-2-yl)-2-hydroxyethan-1-one] | IC50 [1, 2]: 1200 nM; IC50 (THP1 cells; [3]): 1440 nM
8140 nM | 42.8 nM | Cn1cc(-c2cc(Cl)c(Cl)c3[nH]c4c(c23)CN(C(=O)CO)CC4)cn1 [TDI-007635] | IC50 (THP1 cells; [3]): 2140 nM
4950 nM | 22.8 nM | O=C(CO)N1CCc2[nH]c3c(Cl)c(Cl)cc(-c4ccco4)c3c2C1 [TDI-008070] | –
9000 nM | 39.3 nM | O=C(CO)N1CCc2[nH]c3c(Cl)c(Cl)cc(-c4ccccc4)c3c2C1 [TDI-008071] | –
6230 nM | 20.4 nM | O=C(CO)N1CCc2[nH]c3c(Cl)c(Cl)cc(-c4cccnc4)c3c2C1 [TDI-008073] | –
6850 nM | 19.4 nM | O=C(CO)N1CCc2[nH]c3c(Cl)c(Cl)cc(-c4cncnc4)c3c2C1 [TDI-008074] | –
3320 nM | 14.6 nM | Cn1ccc(-c2cc(Cl)c(Cl)c3[nH]c4c(c23)CN(C(=O)CO)CC4)n1 [TDI-008077] | IC50 (human PBMCs; [4]): 1150 nM; IC50 [1, 2]: 860 nM; IC50 (THP1 cells; [3]): 930 nM
6430 nM | 25.2 nM | O=C(CO)N1CCc2[nH]c3c(Cl)c(Cl)cc(-c4cnn5ccccc45)c3c2C1 [TDI-008116] | –
1700 nM | 23 nM | Cn1ccc(-c2cc(Cl)c(F)c3[nH]c4c(c23)CN(C(=O)CO)CC4)n1 [TDI-008246, 1-(7-Chloro-6-fluoro-9-(1-methyl-1H-pyrazol-3-yl)-1,3,4,5-tetrahydro-2H-pyrido[4,3-b]indol-2-yl)-2-hydroxyethan-1-one] | IC50 (human PBMCs; freeze-thawed PBMCs, read-out: Freeze-thawed human PBMCs, qRT-PCR IC50): 1160 nM; IC50 (human PBMCs; [4]): 1120 nM; IC50 [1, 2]: 600 nM; IC50 (THP1 cells; [3]): 1090 nM
6520 nM | 23.2 nM | CCn1ccc(-c2cc(Cl)c(Cl)c3[nH]c4c(c23)CN(C(=O)CO)CC4)n1 [TDI-008371] | –
– | 54.5 nM | O=C(CO)N1CCc2[nH]c3c(Cl)c(Cl)cc(-c4cncc(CO)c4)c3c2C1 [TDI-008450] | –
– | 2910 nM | Cn1nc(C(F)(F)F)cc1-c1cc(Cl)c(Cl)c2[nH]c3c(c12)CN(C(=O)CO)CC3 [TDI-008452] | –
– | 830 nM | Cc1nc2ccc(-c3cc(Cl)c(Cl)c4[nH]c5c(c34)CN(C(=O)CO)CC5)cc2n1C [TDI-008460] | –
– | 344 nM | Cn1c(=O)[nH]c2cc(-c3cc(Cl)c(Cl)c4[nH]c5c(c34)CN(C(=O)CO)CC5)ccc21 [TDI-008461] | –
– | 18 nM | O=C(CO)N1CCc2[nH]c3c(Cl)c(Cl)cc(-c4ccn(C(F)F)n4)c3c2C1 [TDI-008474] | –
– | 568 nM | Cc1nc(C)c(-c2cc(Cl)c(Cl)c3[nH]c4c(c23)CN(C(=O)CO)CC4)[nH]1 [TDI-008605] | –
5800 nM | 22.6 nM | Cc1noc(-c2cc(Cl)c(Cl)c3[nH]c4c(c23)CN(C(=O)CO)CC4)n1 [TDI-008768] | –
12900 nM | 30.5 nM | Cc1nnc(-c2cc(Cl)c(Cl)c3[nH]c4c(c23)CN(C(=O)CO)CC4)o1 [TDI-008777] | –
3410 nM | 17.2 nM | Cn1ccc(-c2cc(Br)c(F)c3[nH]c4c(c23)CN(C(=O)CO)CC4)n1 [TDI-008783] | –
> 40000 nM | 984 nM | Cn1ccc(-c2cc(Cl)c(OCC(F)F)c3[nH]c4c(c23)CN(C(=O)CO)CC4)n1 [TDI-008796] | –
– | 351 nM | CCOc1c(Cl)cc(-c2ccn(C)n2)c2c3c([nH]c12)CCN(C(=O)CO)C3 [TDI-008797] | –
16100 nM | 77.6 nM | Cc1nc(-c2cc(Cl)c(Cl)c3[nH]c4c(c23)CN(C(=O)CO)CC4)no1 [TDI-008937] | –
3180 nM | 32.7 nM | C[C@H]1CN(C(=O)CO)Cc2c1[nH]c1c(F)c(Cl)cc(-c3ccn(C)n3)c21 [TDI-009001] | –
1150 nM | 23.3 nM | Cn1ncc(-c2cc(Cl)c(Cl)c3[nH]c4c(c23)CN(C(=O)CO)CC4)n1 [TDI-009007] | –
720 nM | 17.6 nM | Cn1ncc(-c2cc(Cl)c(F)c3[nH]c4c(c23)CN(C(=O)CO)CC4)n1 [TDI-009186] | –
4400 nM | 39.2 nM | Cn1ccc(-c2cc(Cl)c(C#N)c3[nH]c4c(c23)CN(C(=O)CO)CC4)n1 [TDI-009208] | –

Continued, compound first:

Compound | IC50 (THP1-Dual cells) | IC50 (h-cGAS) | further results
Cn1c2c(c3ccc(Cl)c(F)c31)CN(C(=O)CO)CC2 [TDI-006570] | > 40000 nM | 138 nM | –
Nc1ccc(-c2cc(Cl)c(Cl)c3[nH]c4c(c23)CN(C(=O)CO)CC4)cn1 [TDI-008087] | 1970 nM | – | IC50 ([1]; 4 h): 620 nM; IC50 (THP1 cells; THP-1, 4 h): 950 nM
O=C(CO)N1CCc2[nH]c3c(Cl)c(Cl)cc(-c4ccc5nonc5c4)c3c2C1 [TDI-008117] | 6190 nM | 18.2 nM | –
O=C(CO)N1CCc2c(c3ccc(Br)c(F)c3n2CC(F)(F)F)C1 [TDI-008130] | 25800 nM | 1120 nM | –
O=C(CO)N1CCc2c(c3c(-c4cn[nH]c4)cc(Cl)c(F)c3n2C(F)F)C1 [TDI-008136] | 15900 nM | 416 nM | –
O=C(CO)N1CCc2c(c3ccc(Br)c(F)c3n2C(F)F)C1 [TDI-008179] | 34000 nM | 506 nM | –
O=C(CO)N1CCc2[nH]c3c(F)c(Cl)cc(-c4cn[nH]c4)c3c2C1 [TDI-008185] | 9900 nM | 32.2 nM | –
COCCn1c2c(c3c(-c4ccn(C)n4)cc(Cl)c(F)c31)CN(C(=O)CO)CC2 [TDI-008292] | > 40000 nM | 402 nM | –
CN1CC=C(c2cc(Cl)c(Cl)c3[nH]c4c(c23)CN(C(=O)CO)CC4)CC1 [TDI-008449] | – | 420 nM | –
O=C(CO)N1CCc2[nH]c3c(Cl)c(Cl)cc(-c4cnc(C(F)(F)F)nc4)c3c2C1 [TDI-008451] | – | 9780 nM | –
O=C(CO)N1CCc2[nH]c3c(Cl)c(Cl)cc(-c4cncc(C(F)(F)F)c4)c3c2C1 [TDI-008455] | – | 154 nM | –
O=C(CO)N1CCc2[nH]c3c(Cl)c(Cl)cc(-c4ccc5c(c4)OCO5)c3c2C1 [TDI-008457] | – | 44.6 nM | –
O=C1COc2cc(-c3cc(Cl)c(Cl)c4[nH]c5c(c34)CN(C(=O)CO)CC5)ccc2N1 [TDI-008462] | – | 1200 nM | –
O=C(CO)N1CCc2[nH]c3c(Cl)c(Cl)cc(-c4ccc(S(=O)(=O)NCCCO)cc4)c3c2C1 [TDI-008464] | – | 3910 nM | –
CNC(=O)c1cc(Cl)c(F)c2[nH]c3c(c12)CN(C(=O)CO)CC3 [TDI-008520] | – | 1040 nM | –
CC(=O)Nc1cc(Cl)c(F)c2[nH]c3c(c12)CN(C(=O)CO)CC3 [TDI-008522] | – | 365 nM | –
O=C(CO)N1CCc2[nH]c3c(F)c(Cl)cc(N4CCCC4)c3c2C1 [TDI-008860] | > 10000 nM | 350 nM | –
O=C(CO)N1CCc2[nH]c3c(F)c(Cl)cc(N4CCC5CC54)c3c2C1 (centres unmarked) [TDI-008861] | > 10000 nM | 480 nM | –
C[C@@H]1CCN(c2cc(Cl)c(F)c3[nH]c4c(c23)CN(C(=O)CO)CC4)C1 [TDI-008862] | – | 478 nM | –
CC1CCN(c2cc(Cl)c(F)c3[nH]c4c(c23)CN(C(=O)CO)CC4)C1 (centres unmarked) [TDI-008863] | > 10000 nM | 147 nM | –
O=C(CO)N1CCc2[nH]c3c(F)c(Cl)cc(N4CCC(O)C4)c3c2C1 (centres unmarked) [TDI-008864] | > 10000 nM | 455 nM | –
N#CC1CCN(c2cc(Cl)c(F)c3[nH]c4c(c23)CN(C(=O)CO)CC4)C1 (centres unmarked) [TDI-008865] | > 10000 nM | 1580 nM | –
O=C(CO)N1CCc2[nH]c3c(F)c(Cl)cc(N4CCC(F)(F)C4)c3c2C1 [TDI-008866] | > 10000 nM | 452 nM | –
C[C@@H]1CN(C(=O)CO)Cc2c1[nH]c1c(F)c(Cl)cc(-c3ccn(C)n3)c21 [TDI-009000] | 2890 nM | 24.5 nM | –
O=C(CO)N1CCc2[nH]c3c(F)c(Cl)cc(-n4cccn4)c3c2C1 [TDI-009013, 1-(7-chloro-6-fluoro-9-pyrazol-1-yl-1,3,4,5-tetrahydropyrido [4,3-b]indol-2-yl)-2-hydroxy-ethanone] | > 40000 nM | 583 nM | –
O=C(CO)N1CCc2[nH]c3c(F)c(Cl)cc(N4CCCC4=O)c3c2C1 [TDI-009072] | > 40000 nM | 18600 nM | –

— US11414422B2, “Substituted pyrido[4,3-b]indoles and azepino[4,5-b]indoles as inhibitors of cGAS” (The Rockefeller University, priority 2018, dated 2022)
